Biological target: T1, human PI3Kβ (Homo sapiens, UniProt P42338)
T1 construct: made in house
Assay: Biochemical PI3Kbeta (KinaseGlo luminescent kinase assay)
Conditions: 1 μM ATP, mean of n measurements, read-out: PI3Kb/ IC50
Protocol: Test compounds were dissolved in DMSO (10 mM) and transferred into 1.4 mL flat bottom or V-shaped Matrix tubes carrying a unique 2D matrix chip by individual Novartis compound hubs. The numbers of these chips were distinctively linked to Novartis Pharma Numbers. The stock solutions were stored at −20° C. if not used immediately. For the test procedure the vials were defrosted and identified by a scanner whereby a working sheet was generated that guided the subsequent working steps.
Compounds were either manually diluted in DMSO for individual experiments (96 wells enabling 10 cpds at 8 (single points) concentrations) as described in or prepared as described below if tested for profiling in 384-wells. This format enabled the assay of maximally 40 individual test compounds at 8 concentrations (single points) including 4 reference compounds. The dilution protocol included the production of “pre-dilution plates”, “master plates” and “assay plates”.
96 polypropylene well plates were used as pre-dilution plates. A total of 4 pre-dilution plates were prepared including 10 test compounds each on the plate positions A1-A10, one standard compound at A11 and one DMSO control at A12. Programs have been written to run these pipetting steps on the HamiltonSTAR robots.
Identical “assay plates” were then prepared by pipetting 50 nL each of compound dilutions of the “master plates” into 384-well “assay plates”. The compounds were mixed with 4.5 μL of assays components plus 4.5 μL enzyme corresponding to a 1:181 dilution enabling the final concentration of 10, 3.0, 1.0, 0.3, 0.1, 0.03, 0.01 and 0.003 μM, respectively. The preparation of the “master plates” was handled by the Matrix PlateMate Plus robot and replication of “assay plates” by the HummingBird robot.
Catalytically active human PI3Kα, PI3Kβ, PI3Kδ, and mTOR were cloned, expressed and purified as described (Maira S M, Stauffer F, Brueggen J, Furet P, Schnell C, Fritsch C, Brachmann S, Chène P, de Pover A, Schoemaker K, Fabbro D, Gabriel D, Simonen M, Murphy L, Finan P, Sellers W, García-Echeverría C (2008), Mol Cancer Ther. 7:1851-63 and Maira S M, Pecchi S, Brueggen J, Huh K, Schnell C, Fritsch C, Nagel T, Wiesmann M, Brachmann S, Dorsch M, Chène P, Schoemaker K, De Pover A, Menezes D, Fabbro D, Sellers W, García-Echeverría C, Voliva C F (2011), Mol. Cancer Ther. accepted).
The luminescence-based ATP detection reagent KinaseGlo was obtained from Promega, (Cat. No. V6714, Lot No. 236161) through Catalys, Wallisellen, Switzerland. (L-alpha-phosphatidylinositol (PI), Liver, Bovine) were obtained from Avanti Polar Lipid (Cat. No. 840042C, Lot#LPI-274), Phosphatidylinositol-4,5-bisphosphate (PIP(4,5)2 (Avanti, Cat. No. 840046×) or L-α-phosphatidylinositol (PI) was obtained from Avanti Polar Lipid (Cat. No. 840042C, Lot#LPI-274). L-α-Phosphatidylserine (PS) was from Avanti Polar Lipid (Cat. No. 840032C), n-OctylGlucoside Avanti Polar Lipid (Cat. No. 10634425001). Luminescence is a well established readout to determine ATP concentrations and can thus be used to follow the activity of many kinases regardless of their substrate. The Kinase Glo Luminescent Kinase Assay (Promega, Madison/Wis., USA) is a homogeneous HTS method of measuring kinase activity by quantifying the amount of ATP remaining in solution following a kinase reaction.
50 nL of compound dilutions were dispensed onto black 384-well low volume Non Binding Styrene (NBS) plates (Costar Cat. No. NBS#3676) as described in section 8.2. L-α-phosphatidylinositol (PI), provided as 10 mg/ml solution in methanol, was transferred into a glass tube and dried under nitrogen beam. It was then resuspended in 3% OctylGlucoside by vortexing and stored at 4° C. 5 μL of a mix of PI/OG with the PI3Ka and Pi3Kb subtypes were added. Kinase reactions were started by addition of 5 μl of ATP-mix containing in a final volume 10 μL 10 mM TRIS-HCl pH 7.5, 3 mM MgCl2, 50 mM NaCl, 0.05% CHAPS, 1 mM DTT and 1 μM ATP, and occurred at room temperature.

T1 sequence (P42338 2-1070 limits assumed): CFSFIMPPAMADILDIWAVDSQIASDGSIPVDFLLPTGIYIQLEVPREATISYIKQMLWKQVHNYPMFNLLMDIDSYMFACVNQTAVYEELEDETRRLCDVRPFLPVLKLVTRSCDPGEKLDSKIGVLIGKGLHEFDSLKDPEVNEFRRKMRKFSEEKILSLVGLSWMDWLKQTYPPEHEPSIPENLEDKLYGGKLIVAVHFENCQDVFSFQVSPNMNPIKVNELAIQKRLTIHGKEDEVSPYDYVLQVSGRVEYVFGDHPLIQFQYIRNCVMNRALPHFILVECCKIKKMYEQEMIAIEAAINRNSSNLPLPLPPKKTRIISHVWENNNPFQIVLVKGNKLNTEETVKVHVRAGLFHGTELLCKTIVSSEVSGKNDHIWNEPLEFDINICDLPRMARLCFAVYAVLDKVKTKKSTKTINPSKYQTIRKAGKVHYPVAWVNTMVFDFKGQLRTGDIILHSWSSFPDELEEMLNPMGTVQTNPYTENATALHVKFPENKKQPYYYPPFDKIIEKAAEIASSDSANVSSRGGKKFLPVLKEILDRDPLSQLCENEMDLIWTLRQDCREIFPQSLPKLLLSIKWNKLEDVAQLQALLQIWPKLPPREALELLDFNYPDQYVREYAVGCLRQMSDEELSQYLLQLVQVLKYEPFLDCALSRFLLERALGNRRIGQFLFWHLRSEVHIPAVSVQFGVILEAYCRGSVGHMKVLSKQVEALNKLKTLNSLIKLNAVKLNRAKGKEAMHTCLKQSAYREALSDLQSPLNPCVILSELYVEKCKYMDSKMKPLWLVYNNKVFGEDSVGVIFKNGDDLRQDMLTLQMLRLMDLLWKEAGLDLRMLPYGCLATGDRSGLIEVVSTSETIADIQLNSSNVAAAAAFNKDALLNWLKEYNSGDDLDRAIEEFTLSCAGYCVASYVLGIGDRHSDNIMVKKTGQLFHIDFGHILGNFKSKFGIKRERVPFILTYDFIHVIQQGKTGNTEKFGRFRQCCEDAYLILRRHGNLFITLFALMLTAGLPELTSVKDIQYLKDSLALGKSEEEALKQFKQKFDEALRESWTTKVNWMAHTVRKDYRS

IC50 | Structure (SMILES)
35 nM | Nc1ncc(-c2cc(N3C(=O)O[C@H]4COC[C@H]43)nc(N3CCOCC3)n2)c(C(F)(F)F)n1 [Example 21, (3aR,6aR)-3-(2′-amino-2-morpholino-4′-(trifluoromethyl)-[4,5′-bipyrimidin]-6-yl)-tetrahydrofuro[3,4-d]oxazol-2(3H)-one]
11 nM | C[C@H]1[C@@H](CCO)OC(=O)N1c1cc(-c2cnc(N)nc2C(F)(F)F)nc(N2CCOCC2)n1 [Example 23, (4S,5R)-3-(2′-Amino-2-morpholino-4′-(trifluoromethyl)-[4,5′-bipyrimidin]-6-yl)-5-(2-hydroxyethyl)-4-methyloxazolidin-2-one]

— patent publication US8865894B2, “Oxazolidin-2-one compounds and uses thereof” (Novartis AG, priority 2012, dated 2014)
